In patent US20160368919A1, “NOVEL PYRIDINE PYRAZINONES AS BET-FAMILY BROMODOMAIN INHIBITORS” (Pfizer Inc., priority 2015, published 2016):

How the values were obtained:
Format in all cases: cell-based
MM1.S cells = assay: MM1.S cell proliferation assay (CellTiter-Glo)
Description: (§1) MM1.S (dexamethasone sensitive) and OPM-2 cells were purchased from ATCC and maintained in RPMI-1640 medium with 10% fetal bovine serum at 37 degrees, 5% CO2. Cells were seeded at 10,000 cells/well in 100 uL medium. The following day compounds or control vehicle (DMSO) were added at indicated concentrations in 10 ul volume. Compound treated OPM-2 cells and MM1.S cell were analyzed for cell density at 72h and 96h, respectively, using CellTiter-Glo® (CTG) reagent (Promega). The CTG assay measures the amount of ATP present, which indicates the number of viable cells in culture.

OPM-2 cells = assay: OPM-2 cell proliferation assay (CellTiter-Glo)
Description: as §1

HCC2429 cells = assay: NMC HCC2429 cell proliferation assay (CellTiter-Glo); conditions: HCC2429, CTG at 96h
Description: NMC HCC2429 Cell Proliferation Assay • HCC2429 cells were plated into a 96-well plate (10,000 cells/well). Compounds or control vehicle (DMSO) were added at indicated concentrations. Compound-treated HCC2429 cells were analyzed for cell density at 96h using CellTiter-Glo® (CTG) reagent (Promega).

[1] = test system: MYC, SOX2, involucrin and Keratin 14 expression in HCC2429 cells; assay: Biomarker analysis in HCC2429 cells (RT-PCR, Western blot)
Description: HCC2429 cells were plated into a 6-well plate (250,000 cells/well). Cells were treated with compounds or control vehicle (DMSO) at the indicated concentrations for 72 hrs. Cells were collected, washed in PBS, and split for western blot and RNA analysis.

LnCaP cells, AR(+) = assay: CRPC cell proliferation assay (CellTiter-Glo), LnCaP; conditions: CTG at 96h
Description: (§2) Castrate-Resistant Prostate Cancer (CRPC) Cell Proliferation Assay • Cells were seeded into 96-well plates at 2,000-10,000 cells/well in 100 uL medium. Four AR(+) cell lines (LnCaP, C4-2 (parental), C4-2AR-WT and C4-2AR—F876L) and one AR(−) cell line (DU-145) were studied. Compound treated cells were analyzed for cell density at 96h, using CellTiter-Glo® (CTG) reagent (Promega).

[2] = test system: C4-2 (parental) cells, AR(+); assay: CRPC cell proliferation assay (CellTiter-Glo), C4-2; conditions: CTG at 96h
Description: as §2

C4-2AR-WT cells, AR(+) = assay: CRPC cell proliferation assay (CellTiter-Glo), C4-2AR-WT; conditions: CTG at 96h
Description: as §2

[3] = test system: C4-2AR-F876L cells, AR(+); assay: CRPC cell proliferation assay (CellTiter-Glo), C4-2AR-F876L; conditions: CTG at 96h
Description: as §2

DU-145 cells, AR(−) = assay: CRPC cell proliferation assay (CellTiter-Glo), DU-145; conditions: CTG at 96h
Description: as §2

[4] = test system: CRPC cell lines (LnCaP, C4-2, C4-2AR-WT, C4-2AR-F876L, DU-145); assay: CRPC cell proliferation assay, summary over the cell lines
Description: Castrate-Resistant Prostate Cancer (CRPC) Cell Proliferation Assay • Cells were seeded into 96-well plates at 2,000-10,000 cells/well in 100 uL medium. Four AR(+) cell lines (LnCaP, C4-2 (parental), C4-2AR-WT and C4-2AR—F876L) and one AR(−) cell line (DU-145) were studied. Compound treated cells were analyzed for cell density at 96h, using CellTiter-Glo® (CTG) reagent (Promega). […] Example 10 and IBET-151 BET had submicromolar IC50 values in the AR(+) cell lines. The inhibitors maintained potency in C4-2 cells engineered to express wild type (WT) AR receptor (C4-2-AR-WT), as well as cells engineered to express the F876L mutation (C4-2-AR-F876L) that confers resistance to androgen receptor (AR) antagonists.

[5] = HCC2429, Western blot, 72 hrs, concentration-dependent

| Compound | IC50 (MM1.S cells; MM1.S, CTG at 96h) | inhibition of proliferation of MM1.S cells (MM1.S cells; dose dependent manner, FIG. 1.A) | IC50 (OPM-2 cells; OPM-2, CTG at 72h) | inhibition of proliferation of OPM-2 cells (OPM-2 cells; dose dependent manner, FIG. 1.B) | IC50 (HCC2429 cells) | mRNA expression of involucrin ([1]; HCC2429, RT-PCR, 72 hours, 50 nM, 200 nM and 500 nM, dose dependent) | MYC protein level [1, 5] | SOX2 protein level [1, 5] | Max % Inh (LnCaP cells, AR(+)) | Max % Inh [2] | Max % Inh (C4-2AR-WT cells, AR(+)) | Max % Inh [3] | Max % Inh (DU-145 cells, AR(−)) | activity on cell proliferation ([4]; short-term assay, compared with the BET inhibitors) | IC50 (LnCaP cells, AR(+); Homo sapiens) | IC50 [2] | IC50 (C4-2AR-WT cells, AR(+)) | IC50 [3] | IC50 (DU-145 cells, AR(−); Homo sapiens) | IC50 values in the AR(+) cell lines ([4]; AR(+) cell lines, CTG at 96h) |
| --- | --- | --- | --- | --- | --- | --- | --- | --- | --- | --- | --- | --- | --- | --- | --- | --- | --- | --- | --- | --- |
| Cc1sc2c(c1C)C(c1ccc(Cl)cc1)=N[C@@H](CC(=O)OC(C)(C)C)c1nnc(C)n1-2 [JQ1(+)] | 0.011 µM | inhibited proliferation | 0.009 µM | inhibited proliferation | 0.044 µM | increased | down-regulated | down-regulated |  |  |  |  |  |  |  |  |  |  |  |  |
| CNC(=O)c1ccc(N2C(=S)N(c3ccc(C#N)c(C(F)(F)F)c3)C(=O)C2(C)C)cc1F [MDV3100, reference compound] |  |  |  |  |  |  |  |  | 43% | 33% | 39% | 44% | 23% | weaker activity |  |  |  |  |  |  |
| COc1cc2c(cc1-c1c(C)noc1C)ncc1[nH]c(=O)n([C@H](C)c3ccccn3)c12 [i-BET151, reference compound] |  |  |  |  |  |  |  |  | 78% | 90% | 92% | 90% | 74% |  | 0.4 µM | 0.49 µM | 0.43 µM | 0.47 µM | 1.13 µM | submicromolar |
